Tests used:
kochia [1] = experiment: Test C postemergence; format: in vivo, Bassia scoparia; conditions: 10 days
In short: (§1)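 Visual injury ratings on a 0–100 scale (100 = complete control) were made against untreated controls 10 days after treatment in the greenhouse. Compounds, formulated with surfactant in non-phytotoxic solvent, were sprayed on soil preemergence or onto one- to two-leaf plants 2–10 cm tall postemergence.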

blackgrass [2] = experiment: Test C postemergence; format: in vivo, Alopecurus myosuroides; conditions: 10 days
In short: as §1

soybean [3] = experiment: Test C postemergence; format: in vivo, Glycine max; conditions: 10 days
In short: as §1

pigweed, palmer [4] = experiment: Test C preemergence; format: in vivo, Amaranthus palmeri; conditions: 0 to 100 scale (0 no effect, 100 complete control); for Plant response rating, Pigweed, Palmer: Preemergence, 500 g ai/ha, visual rating after 10 days; for Pigweed, Palmer plant response rating: Test C, preemergence, 125 g ai/ha
In short: as §1

corn [5] = experiment: Test C postemergence; format: in vivo, Zea mays; conditions: 10 days
In short: as §1

ryegrass, Italian [6] = experiment: Test C preemergence; format: in vivo, Lolium multiflorum; conditions: 0 to 100 scale (0 no effect, 100 complete control); for Plant response rating, Ryegrass, Italian: Preemergence, 500 g ai/ha, visual rating after 10 days; for Ryegrass, Italian plant response rating: Test C, preemergence, 125 g ai/ha
In short: as §1

galium = experiment: Test C postemergence; format: in vivo, Galium aparine; conditions: 10 days
In short: as §1

corn [7] = experiment: Test C preemergence; format: in vivo, Zea mays; conditions: 0 to 100 scale (0 no effect, 100 complete control); for Plant response rating, Corn: Preemergence, 500 g ai/ha, visual rating after 10 days; for Corn plant response rating: Test C, preemergence, 125 g ai/ha
In short: as §1

pigweed, palmer [8] = experiment: Test C postemergence; format: in vivo, Amaranthus palmeri; conditions: 10 days
In short: as §1

barnyardgrass [9] = experiment: Test C preemergence; format: in vivo, Echinochloa crusgalli; conditions: 0 to 100 scale (0 no effect, 100 complete control); for Plant response rating, Barnyardgrass: Preemergence, 500 g ai/ha, visual rating after 10 days; for Barnyardgrass plant response rating: Test C, preemergence, 125 g ai/ha
In short: as §1

ragweed [10] = experiment: Test C postemergence; format: in vivo, Ambrosia artemisiifolia; conditions: 10 days
In short: as §1

rice = experiment: Test D flooded paddy test; format: in vivo, Oryza sativa; conditions: 250 g ai/ha, applied to paddy water, visual rating after 13 to 14 days, scale 0 to 100 (0 no effect, 100 complete control)
In short: (§2)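 Visual ratings from 0, meaning no effect, to 100, meaning complete control, were assigned against untreated controls 13 to 14 days after compounds were added to the floodwater of pots kept 3 cm deep, with plants at the 2-leaf stage.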

oat, wild [11] = experiment: Test C preemergence; format: in vivo, Avena fatua; conditions: 0 to 100 scale (0 no effect, 100 complete control); for Plant response rating, Oat, Wild: Preemergence, 500 g ai/ha, visual rating after 10 days; for Oat, Wild plant response rating: Test C, preemergence, 125 g ai/ha
In short: as §1

wheat [12] = experiment: Test C preemergence; format: in vivo, Triticum aestivum; conditions: 0 to 100 scale (0 no effect, 100 complete control); for Plant response rating, Wheat: Preemergence, 500 g ai/ha, visual rating after 10 days; for Wheat plant response rating: Test C, preemergence, 125 g ai/ha
In short: as §1

wheat [13] = experiment: Test C postemergence; format: in vivo, Triticum aestivum; conditions: 10 days
In short: as §1

ragweed [14] = experiment: Test C preemergence; format: in vivo, Ambrosia artemisiifolia; conditions: 0 to 100 scale (0 no effect, 100 complete control); for Plant response rating, Ragweed: Preemergence, 500 g ai/ha, visual rating after 10 days; for Ragweed plant response rating: Test C, preemergence, 125 g ai/ha
In short: as §1

green foxtail [15] = experiment: Test C preemergence; format: in vivo, Setaria viridis; conditions: 0 to 100 scale (0 no effect, 100 complete control); for Plant response rating, Foxtail, Green: Preemergence, 500 g ai/ha, visual rating after 10 days; for Foxtail, Green plant response rating: Test C, preemergence, 125 g ai/ha
In short: as §1

kochia [16] = experiment: Test C preemergence; format: in vivo, Bassia scoparia; conditions: 0 to 100 scale (0 no effect, 100 complete control); for Plant response rating, Kochia: Preemergence, 500 g ai/ha, visual rating after 10 days; for Kochia plant response rating: Test C, preemergence, 125 g ai/ha
In short: as §1

green foxtail [17] = experiment: Test C postemergence; format: in vivo, Setaria viridis; conditions: 10 days
In short: as §1

barnyardgrass [18] = experiment: Test C postemergence; format: in vivo, Echinochloa crusgalli; conditions: 10 days
In short: as §1

sedge, umbrella = experiment: Test D flooded paddy test; format: in vivo, Cyperus difformis; conditions: 250 g ai/ha, applied to paddy water, visual rating after 13 to 14 days, scale 0 to 100 (0 no effect, 100 complete control)
In short: as §2

barnyardgrass [19] = experiment: Test D flooded paddy test; format: in vivo, Echinochloa crus-galli; conditions: 250 g ai/ha, applied to paddy water, visual rating after 13 to 14 days, scale 0 to 100 (0 no effect, 100 complete control)
In short: as §2

soybean [20] = experiment: Test C preemergence; format: in vivo, Glycine max; conditions: 0 to 100 scale (0 no effect, 100 complete control); for Plant response rating, Soybean: Preemergence, 500 g ai/ha, visual rating after 10 days; for Soybean plant response rating: Test C, preemergence, 125 g ai/ha
In short: as §1

ryegrass, Italian [21] = experiment: Test C postemergence; format: in vivo, Lolium multiflorum; conditions: 10 days
In short: as §1

blackgrass [22] = experiment: Test C preemergence; format: in vivo, Alopecurus myosuroides; conditions: 0 to 100 scale (0 no effect, 100 complete control); for Plant response rating, Blackgrass: Preemergence, 500 g ai/ha, visual rating after 10 days; for Blackgrass plant response rating: Test C, preemergence, 125 g ai/ha
In short: as §1

oat, wild [23] = experiment: Test C postemergence; format: in vivo, Avena fatua; conditions: 10 days
In short: as §1

ducksalad = experiment: Test D flooded paddy test; format: in vivo, Heteranthera limosa; conditions: 250 g ai/ha, applied to paddy water, visual rating after 13 to 14 days, scale 0 to 100 (0 no effect, 100 complete control)
In short: as §2

horseweed = experiment: Test C postemergence; format: in vivo, Erigeron canadensis; conditions: 10 days
In short: as §1

[24] = 125 g ai/ha, postemergence, 0 to 100 scale, 0 no effect, 100 complete control
[25] = Postemergence, 500 g ai/ha, visual 0 to 100 scale (0 no effect, 100 complete control)

For `CC(C)n1cnc(-c2cccc(C(=O)N3C[C@H](C)Oc4c(Cl)cccc43)c2)n1` [Compound 172], the “Plant response rating, Kochia” value (kochia [1]; [24]) was 0, the “Plant response rating, Kochia” value (kochia [1]; [25]) was 30 and the “Plant response rating, Blackgrass” value (blackgrass [2]; [24]) was 0. For the same compound, the “Plant response rating, Blackgrass” value (blackgrass [2]; [25]) was 0, the “Plant response rating, Soybean” value (soybean [3]; [24]) was 0 and the “Plant response rating, Soybean” value (soybean [3]; [25]) was 0. For the same compound, the “Plant response rating, Pigweed, Palmer” value (pigweed, palmer [4]) was 0, the “Pigweed, Palmer plant response rating” value (pigweed, palmer [4]) was 0 and the “Plant response rating, Corn” value (corn [5]; [24]) was 0. The “Plant response rating, Corn” value (corn [5]; [25]) was 0, the “Plant response rating, Ryegrass, Italian” value (ryegrass, Italian [6]) was 20 and the “Ryegrass, Italian plant response rating” value (ryegrass, Italian [6]) was 0. For the same compound, the “Plant response rating, Galium” value (galium; [24]) was 0, the “Plant response rating, Galium” value (galium; [25]) was 0 and the “Plant response rating, Corn” value (corn [7]) was 0. The “Corn plant response rating” value (corn [7]) was 0, the “Plant response rating, Pigweed, Palmer” value (pigweed, palmer [8]; [24]) was 0 and the “Plant response rating, Pigweed, Palmer” value (pigweed, palmer [8]; [25]) was 0. For the same compound, the “Plant response rating, Barnyardgrass” value (barnyardgrass [9]) was 0, the “Barnyardgrass plant response rating” value (barnyardgrass [9]) was 0 and the “Plant response rating, Ragweed” value (ragweed [10]; [24]) was 0. The “Plant response rating, Ragweed” value (ragweed [10]; [25]) was 0, the “Plant response rating, Rice (Flood)” value (rice) was 0 and the “Plant response rating, Oat, Wild” value (oat, wild [11]) was 0. The “Oat, Wild plant response rating” value (oat, wild [11]) was 0, the “Plant response rating, Wheat” value (wheat [12]) was 0 and the “Wheat plant response rating” value (wheat [12]) was 0. The “Plant response rating, Wheat” value (wheat [13]; [24]) was 0, the “Plant response rating, Wheat” value (wheat [13]; [25]) was 0 and the “Plant response rating, Ragweed” value (ragweed [14]) was 0. The “Ragweed plant response rating” value (ragweed [14]) was 0, the “Plant response rating, Foxtail, Green” value (green foxtail [15]) was 0 and the “Foxtail, Green plant response rating” value (green foxtail [15]) was 0. For the same compound, the “Plant response rating, Kochia” value (kochia [16]) was 0, the “Kochia plant response rating” value (kochia [16]) was 0 and the “Plant response rating, Foxtail, Green” value (green foxtail [17]; [24]) was 0. The “Plant response rating, Foxtail, Green” value (green foxtail [17]; [25]) was 0, the “Plant response rating, Barnyardgrass” value (barnyardgrass [18]; [24]) was 0 and the “Plant response rating, Barnyardgrass” value (barnyardgrass [18]; [25]) was 0. The “Plant response rating, Sedge, Umbrella (Flood)” value (sedge, umbrella) was 0, the “Plant response rating, Barnyardgrass (Flood)” value (barnyardgrass [19]) was 0 and the “Plant response rating, Soybean” value (soybean [20]) was 0. The “Soybean plant response rating” value (soybean [20]) was 0, the “Plant response rating, Ryegrass, Italian” value (ryegrass, Italian [21]; [24]) was 0 and the “Plant response rating, Ryegrass, Italian” value (ryegrass, Italian [21]; [25]) was 0. For the same compound, the “Plant response rating, Blackgrass” value (blackgrass [22]) was 0, the “Blackgrass plant response rating” value (blackgrass [22]) was 0 and the “Plant response rating, Oat, Wild” value (oat, wild [23]; [24]) was 0. The “Plant response rating, Oat, Wild” value (oat, wild [23]; [25]) was 0, the “Plant response rating, Ducksalad (Flood)” value (ducksalad) was 0 and the “Plant response rating, Horseweed” value (horseweed; [24]) was 0. For the same compound, the “Plant response rating, Horseweed” value (horseweed; [25]) was 0.

For `CCc1ncn(-c2ccc(C)c(C(=O)N3CC(C(F)(F)F)Oc4c(Cl)cccc43)c2)n1` (single isomer, unassigned) [Compound 218], the “Plant response rating, Kochia” value (kochia [1]; [24]) was 90, the “Plant response rating, Kochia” value (kochia [1]; [25]) was 100 and the “Plant response rating, Blackgrass” value (blackgrass [2]; [24]) was 90. The “Plant response rating, Blackgrass” value (blackgrass [2]; [25]) was 100, the “Plant response rating, Soybean” value (soybean [3]; [24]) was 100 and the “Plant response rating, Soybean” value (soybean [3]; [25]) was 100. For the same compound, the “Plant response rating, Pigweed, Palmer” value (pigweed, palmer [4]) was 100, the “Pigweed, Palmer plant response rating” value (pigweed, palmer [4]) was 100 and the “Plant response rating, Corn” value (corn [5]; [24]) was 70. The “Plant response rating, Corn” value (corn [5]; [25]) was 70, the “Plant response rating, Ryegrass, Italian” value (ryegrass, Italian [6]) was 90 and the “Ryegrass, Italian plant response rating” value (ryegrass, Italian [6]) was 90. For the same compound, the “Plant response rating, Galium” value (galium; [24]) was 100, the “Plant response rating, Galium” value (galium; [25]) was 100 and the “Plant response rating, Corn” value (corn [7]) was 60. The “Corn plant response rating” value (corn [7]) was 20, the “Plant response rating, Pigweed, Palmer” value (pigweed, palmer [8]; [24]) was 90 and the “Plant response rating, Pigweed, Palmer” value (pigweed, palmer [8]; [25]) was 90. For the same compound, the “Plant response rating, Barnyardgrass” value (barnyardgrass [9]) was 100, the “Barnyardgrass plant response rating” value (barnyardgrass [9]) was 100 and the “Plant response rating, Ragweed” value (ragweed [10]; [24]) was 80. For the same compound, the “Plant response rating, Ragweed” value (ragweed [10]; [25]) was 80, the “Plant response rating, Rice (Flood)” value (rice) was 0 and the “Plant response rating, Oat, Wild” value (oat, wild [11]) was 90. For the same compound, the “Oat, Wild plant response rating” value (oat, wild [11]) was 60, the “Plant response rating, Wheat” value (wheat [12]) was 80 and the “Wheat plant response rating” value (wheat [12]) was 30. The “Plant response rating, Wheat” value (wheat [13]; [24]) was 60, the “Plant response rating, Wheat” value (wheat [13]; [25]) was 90 and the “Plant response rating, Ragweed” value (ragweed [14]) was 80. The “Ragweed plant response rating” value (ragweed [14]) was 20, the “Plant response rating, Foxtail, Green” value (green foxtail [15]) was 100 and the “Foxtail, Green plant response rating” value (green foxtail [15]) was 100. For the same compound, the “Plant response rating, Kochia” value (kochia [16]) was 100, the “Kochia plant response rating” value (kochia [16]) was 90 and the “Plant response rating, Foxtail, Green” value (green foxtail [17]; [24]) was 90. The “Plant response rating, Foxtail, Green” value (green foxtail [17]; [25]) was 90, the “Plant response rating, Barnyardgrass” value (barnyardgrass [18]; [24]) was 100 and the “Plant response rating, Barnyardgrass” value (barnyardgrass [18]; [25]) was 100. For the same compound, the “Plant response rating, Sedge, Umbrella (Flood)” value (sedge, umbrella) was 80, the “Plant response rating, Barnyardgrass (Flood)” value (barnyardgrass [19]) was 0 and the “Plant response rating, Soybean” value (soybean [20]) was 100. The “Soybean plant response rating” value (soybean [20]) was 90, the “Plant response rating, Ryegrass, Italian” value (ryegrass, Italian [21]; [24]) was 80 and the “Plant response rating, Ryegrass, Italian” value (ryegrass, Italian [21]; [25]) was 90. The “Plant response rating, Blackgrass” value (blackgrass [22]) was 80, the “Blackgrass plant response rating” value (blackgrass [22]) was 40 and the “Plant response rating, Oat, Wild” value (oat, wild [23]; [24]) was 30. For the same compound, the “Plant response rating, Oat, Wild” value (oat, wild [23]; [25]) was 80, the “Plant response rating, Ducksalad (Flood)” value (ducksalad) was 60 and the “Plant response rating, Horseweed” value (horseweed; [24]) was 0. For the same compound, the “Plant response rating, Horseweed” value (horseweed; [25]) was 70.
